From patent publication US20230081720A1, “MCL-1 INHIBITOR ANTIBODY-DRUG CONJUGATES AND METHODS OF USE” (NOVARTIS AG, priority 2019, published 2023)
Counter-ions that a name gives are not always drawn. Like-named read-outs stand apart in the source and are kept apart here.

How the values were obtained:
EOL-1 = assay type: cell-based
Procedure: (§1) Cell lines were cultured in media that is optimal for their growth at 5% CO2, 37° C. in a tissue culture incubator. Prior to seeding for the proliferation assay, the cells were split at least 2 days before the assay to ensure optimal growth density. […] Cell viability and cell density were determined using a cell counter (Vi-Cell XR Cell Viability Analyzer, Beckman Coulter). […] Cells were seeded at a density of 1,000 cells per well in 45 μL of standard growth media. Plates were incubated at 5% CO2, 37° C. overnight in a tissue culture incubator. […] Each drug concentration was tested in quadruplets. […] Plates were incubated at room temperature for 10 minutes to stabilize luminescent signals prior to reading using a luminescence reader (EnVision Multilabel Plate Reader, PerkinElmer). To evaluate the effect of the drug treatments, luminescent counts from wells containing untreated cells (100% viability) were used to normalize treated samples.

NOMO-1 = assay type: cell-based
Procedure: as §1

[1] = CD74 ADC with the named linker-payload, 5 days
[2] = CD74 ADC with the named linker-payload, 5 days, read-out: EOL-1 IC50
[3] = CD74 ADC with the named linker-payload, 5 days, read-out: NOMO-1 IC50

Row | Structure (SMILES) | IC50 (EOL-1) | EOL-1 Amax (EOL-1; [1]) | IC50 (NOMO-1) | NOMO-1 Amax (NOMO-1; [1]) | IC50 (EOL-1; [2]) | IC50 (NOMO-1; [3])
1 | COc1ccccc1-c1nccc(COc2ccccc2C[C@@H](Oc2ncnc3sc(-c4ccc(F)cc4)c(-c4ccc(OCCN5CC[N+](C)(Cc6ccc(NC(=O)[C@H](CCCNC(N)=O)NC(=O)[C@@H](NC(=O)CCOCCN7C(=O)C=CC7=O)C(C)C)cc6CN(C)C(=O)C[C@H](NC(=O)CS(=O)(=O)O)C(=O)O)CC5)c(Cl)c4C)c23)C(=O)O)n1 [L79-P1, 4-(2-(4-(4-((R)-1-carboxy-2-(2-((2-(2-methoxyphenyl)pyrimidin-4-yl)methoxy)phenyl)ethoxy)-6-(4-fluorophenyl)thieno[2,3-d]pyrimidin-5-yl)-2-chloro-3-methylphenoxy)ethyl)-1-(2-(((S)-3-carboxy-N-methyl-3-(2-sulfoacetamido)propanamido)methyl)-4-((S)-2-((S)-2-(3-(2-(2,5-dioxo-2,5-dihydro-1H-pyrrol-1-yl)ethoxy)propanamido)-3-methylbutanamido)-5-ureidopentanamido)benzyl)-1-methylpiperazin-1-ium] | 492 pM | 91.3 | 3140 pM | 56.07 | – | –
2 | COc1ccccc1-c1nccc(COc2ccccc2C[C@@H](Oc2ncnc3sc(-c4ccc(F)cc4)c(-c4ccc(OCCN5CC[N+](C)(Cc6ccc(NC(=O)[C@H](CCCNC(N)=O)NC(=O)[C@@H](NC(=O)CCOCCN7C(=O)C=CC7=O)C(C)C)cc6CN(C)C(=O)[C@H](CCC(=O)O)NC(=O)CS(=O)(=O)O)CC5)c(Cl)c4C)c23)C(=O)O)n1 [L71-P1, 4-(2-(4-(4-((R)-1-carboxy-2-(2-((2-(2-methoxyphenyl)pyrimidin-4-yl)methoxy)phenyl)ethoxy)-6-(4-fluorophenyl)thieno[2,3-d]pyrimidin-5-yl)-2-chloro-3-methylphenoxy)ethyl)-1-(2-(((S)-4-carboxy-N-methyl-2-(2-sulfoacetamido)butanamido)methyl)-4-((S)-2-((S)-2-(3-(2-(2,5-dioxo-2,5-dihydro-1H-pyrrol-1-yl)ethoxy)propanamido)-3-methylbutanamido)-5-ureidopentanamido)benzyl)-1-methylpiperazin-1-ium] | – | 93.09 | – | 53.62 | 341 pM | 9820 pM
3 | COCCOCCOCCOCCOCCOCCOCCOCCOCCOCCOCCOCCC(=O)N[C@@H](CCC(=O)O)C(=O)N(C)Cc1cc(NC(=O)[C@H](CCCNC(N)=O)NC(=O)[C@@H](NC(=O)CCOCCN2C(=O)C=CC2=O)C(C)C)ccc1C[N+]1(C)CCN(CCOc2ccc(-c3c(-c4ccc(F)cc4)sc4ncnc(O[C@H](Cc5ccccc5OCc5ccnc(-c6ccccc6OC)n5)C(=O)O)c34)c(C)c2Cl)CC1 [L72-P1] | – | 109.8 | – | 57.68 | 386 pM | –
4 | COc1ccccc1-c1nccc(COc2ccccc2C[C@@H](Oc2ncnc3sc(-c4ccc(F)cc4)c(-c4ccc(OCCN5CC[N+](C)(Cc6ccc(NC(=O)[C@H](CCCNC(N)=O)NC(=O)[C@@H](NC(=O)CCOCCN7C(=O)C=CC7=O)C(C)C)cc6CN(C)C(=O)[C@H](CCCCNC(=O)CS(=O)(=O)O)NC(=O)CS(=O)(=O)O)CC5)c(Cl)c4C)c23)C(=O)O)n1 [L78-P1, 4-(2-(4-(4-((R)-1-carboxy-2-(2-((2-(2-methoxyphenyl)pyrimidin-4-yl)methoxy)phenyl)ethoxy)-6-(4-fluorophenyl)thieno[2,3-d]pyrimidin-5-yl)-2-chloro-3-methylphenoxy)ethyl)-1-(4-((S)-2-((S)-2-(3-(2-(2,5-dioxo-2,5-dihydro-1H-pyrrol-1-yl)ethoxy)propanamido)-3-methylbutanamido)-5-ureidopentanamido)-2-(((S)-N-methyl-2,6-bis(2-sulfoacetamido)hexanamido)methyl)benzyl)-1-methylpiperazin-1-ium] | – | 87.22 | – | 53.4 | 430 pM | 3740 pM
5 | COc1ccccc1-c1nccc(COc2ccccc2C[C@@H](Oc2ncnc3sc(-c4ccc(F)cc4)c(-c4ccc(OCCN5CC[N+](C)(Cc6ccc(NC(=O)[C@H](CCCNC(N)=O)NC(=O)[C@@H](NC(=O)CCOCCN7C(=O)C=CC7=O)C(C)C)cc6CN(C)C(=O)[C@H](N)CS(=O)(=O)O)CC5)c(Cl)c4C)c23)C(=O)O)n1 [L86-P1] | 721 pM | 105.5 | 7480 pM | 74.52 | – | –
6 | COc1ccccc1-c1nccc(COc2ccccc2C[C@@H](Oc2ncnc3sc(-c4ccc(F)cc4)c(-c4ccc(OCCN5CC[N+](C)(Cc6ccc(NC(=O)[C@H](CCCNC(N)=O)NC(=O)[C@@H](NC(=O)CCOCCN7C(=O)C=CC7=O)C(C)C)cc6COCc6cn(CCOC(=O)NS(=O)(=O)NCCOCCO[C@@H]7O[C@H](CO)[C@@H](O)[C@H](O)[C@H]7O)nn6)CC5)c(Cl)c4C)c23)C(=O)O)n1 [L63-P1, trifluoroacetate] | – | – | – | 61.25 | – | 714 pM
7 | COc1ccccc1-c1nccc(COc2ccccc2C[C@@H](Oc2ncnc3sc(-c4ccc(F)cc4)c(-c4ccc(OCCN5CC[N+](C)(Cc6ccc(NC(=O)[C@H](CCCNC(N)=O)NC(=O)[C@@H](NC(=O)CCOCCN7C(=O)C=CC7=O)C(C)C)cc6CN(C)C(=O)C[C@H](NC(=O)[C@@H]6O[C@H](O)[C@@H](O)[C@H](O)[C@H]6O)C(=O)O)CC5)c(Cl)c4C)c23)C(=O)O)n1 [L68-P1] | – | 127.3 | – | 91.25 | 788 pM | 6910 pM
8 | COc1ccccc1-c1nccc(COc2ccccc2C[C@@H](Oc2ncnc3sc(-c4ccc(F)cc4)c(-c4ccc(OCCN5CC[N+](C)(Cc6ccc(NC(=O)[C@H](CCCNC(N)=O)NC(=O)[C@@H](NC(=O)CCOCCN7C(=O)C=CC7=O)C(C)C)cc6CN(C)C(=O)C[C@H](NC(=O)OC6O[C@H](C(=O)O)[C@@H](O)[C@H](O)[C@H]6O)C(=O)O)CC5)c(Cl)c4C)c23)C(=O)O)n1 (stereo partly drawn) [L69-P1] | – | 159.6 | – | 95.03 | 704 pM | 14800 pM
9 | COc1ccccc1-c1nccc(COc2ccccc2C[C@@H](Oc2ncnc3sc(-c4ccc(F)cc4)c(-c4ccc(OCCN5CC[N+](C)(Cc6ccc(NC(=O)[C@H](CCCNC(N)=O)NC(=O)[C@@H](NC(=O)CCOCCN7C(=O)C=CC7=O)C(C)C)cc6CN(C)C(=O)CN(CC(=O)O)CC(=O)O)CC5)c(Cl)c4C)c23)C(=O)O)n1 [L67-P1, 1-(2-((2-(bis(carboxymethyl)amino)-N-methylacetamido)methyl)-4-((S)-2-((S)-2-(3-(2-(2,5-dioxo-2,5-dihydro-1H-pyrrol-1-yl)ethoxy)propanamido)-3-methylbutanamido)-5-ureidopentanamido)benzyl)-4-(2-(4-(4-((R)-1-carboxy-2-(2-((2-(2-methoxyphenyl)pyrimidin-4-yl)methoxy)phenyl)ethoxy)-6-(4-fluorophenyl)thieno[2,3-d]pyrimidin-5-yl)-2-chloro-3-methylphenoxy)ethyl)-1-methylpiperazin-1-ium] | 261 pM | 119.3 | 2490 pM | 79.39 | – | –
10 | COc1ccccc1-c1nccc(COc2ccccc2C[C@@H](Oc2ncnc3sc(-c4ccc(F)cc4)c(-c4ccc(OCCN5CC[N+](C)(Cc6ccc(NC(=O)[C@H](CCCNC(N)=O)NC(=O)[C@@H](NC(=O)CCOCCN7C(=O)C=CC7=O)C(C)C)cc6COCc6cn(CCOC(=O)NS(=O)(=O)NCCOCCOCCOCCC(=O)O)nn6)CC5)c(Cl)c4C)c23)C(=O)O)n1 [L60-P1, trifluoroacetate] | – | 79.04 | – | 76.94 | 535 pM | 2620 pM
11 | COc1ccccc1-c1nccc(COc2ccccc2C[C@@H](Oc2ncnc3sc(-c4ccc(F)cc4)c(-c4ccc(OCCN5CC[N+](C)(Cc6ccc(NC(=O)[C@H](CCCNC(N)=O)NC(=O)[C@@H](NC(=O)CCOCCN7C(=O)C=CC7=O)C(C)C)cc6COCc6cn(CCOC(=O)NS(=O)(=O)NCCOCCOCCO[C@@H]7O[C@H](CO)[C@@H](O)[C@H](O)[C@H]7O)nn6)CC5)c(Cl)c4C)c23)C(=O)O)n1 [L62-P1, trifluoroacetate] | – | 83.03 | – | 65.18 | 771 pM | 3410 pM
12 | COc1ccccc1-c1nccc(COc2ccccc2C[C@@H](Oc2ncnc3sc(-c4ccc(F)cc4)c(-c4ccc(OCCN5CC[N+](C)(Cc6ccc(NC(=O)[C@H](CCCNC(N)=O)NC(=O)[C@@H](NC(=O)CCOCCN7C(=O)C=CC7=O)C(C)C)cc6CN(C)C(=O)CN(C)C(=O)CN(C)C(=O)CN(C)C(=O)CN(C)C(=O)CN(C)C(=O)CN(C)C(=O)CN(C)C(=O)CN(C)C(=O)CN(C)C(=O)CN(C)C(=O)CN(C)C(=O)CN(C)C(=O)CCC(=O)O)CC5)c(Cl)c4C)c23)C(=O)O)n1 [L35-P1] | 894 pM | 75.56 | 6900 pM | 62.73 | – | –
